{
  "source": "patent US20250026747A1",
  "about": "“COLIBACTIN DERIVATIVES AND METHODS OF TREATING, AMELIORATING, AND/OR PREVENTING CANCER” (priority 2021, published 2025)",
  "key": {"eukaryotic cells": {"test_system": "eukaryotic cells", "experiment": "Genotoxicity of synthetic colibactin 770 in eukaryotic cells", "type": "cell-based", "settings": "eukaryotic cells treated with the synthetic compound"}, "linearized pUC19 DNA": {"test_system": "linearized pUC19 DNA", "experiment": "DNA cross-linking assay with linearized pUC19 DNA, denaturing agarose gel electrophoresis", "type": "biochemical", "settings": "linearized pUC19 DNA, pH 7.0, 1 nM-100 μM", "procedure": "FIGS. 6A-6C depict the DNA crosslinking ability of several compounds according to some embodiments. The DNA cross-linking assays employ linear pUC19 DNA. DMSO was used as vehicle (negative control), and 100 μM cisplatin was used as positive controls. The DNA was analyzed by 0.4% NaOH denaturing and agarose gel electrophoresis (90 V, 1.5 h). FIG. 6A depicts the DNA cross-linking comparison of colibactin 770 (3a), stable colibactin 742 (4), and its linear precursor 9 at pH 5.0. FIG. 6B depicts the comparison of the relative DNA cross-linking abilities of colibactin 742 (4) and its linear precursor 9 at pH 5.0. FIG. 6C depicts the comparison of the relative DNA cross-linking abilities of colibactin 742 (4) and its linear precursor 9 at pH 7.0.\nFIG. 10 depicts the DNA cross-linking assay employing linear pUC19 DNA and synthetic colibactin (3), 9, and colibactin 742 (4) according to some embodiments. Specifically, 5% DMSO was used as vehicle (negative control), and 100 μM cisplatin was used as positive control. DNA ladder (Lane #1); 5% DMSO (Lane #2); 100 μM cisplatin (Lane #3); 200 μM colibactin (3) (Lane #4); 100 μM colibactin (3) (Lane #5); 10 μM colibactin (3) (Lane #6); 1 μM colibactin (3) (Lane #7); 200 μM 9 (Lane #8); 100 μM 9 (Lane #9); 10 μM 9 (Lane #10); 1 μM 9 (Lane #11); 200 μM colibactin 742 (4) (Lane #12); 100 μM colibactin 742 (4) (Lane #13); 10 μM colibactin 742 (4) (Lane #14); 1 μM colibactin 742 (4) (Lane #15). Conditions (Lane #3): linearized pUC19 DNA (15.4 μM in base pairs), 5% DMSO (vehicle), 100 μM cisplatin, 10 mM citric buffer, pH 5.0, 4 h, 37° C. Conditions (Lanes #4-#7): linearized pUC19 DNA (15.4 μM in base pairs), colibactin (3) (200 μM-1 μM), 5% DMSO, 10 mM citric buffer, pH 5.0, 4 h, 37° C. Conditions (Lanes #8-#11): linearized pUC19 DNA (15.4 μM in base pairs), 9 (200 μM-1 μM), 5% DMSO, 10 mM citric buffer, pH 5.0, 4 h, 37° C. Conditions (Lanes #12-#15): linearized pUC19 DNA (15.4 μM in base pairs), colibactin 742 (4) (200 μM-1 μM), 5% DMSO, 10 mM citric buffer, pH 5.0, 4 h, 37° C. The DNA was analyzed by native, 0.2% NaOH, 0.4% NaOH, and 1% NaOH denaturing agarose gel electrophoresis (90 V, 1.5 h). Linear=linearized DNA in native form, linear-denat.=linearized DNA in denaturing form, linear-XL=linerized DNA cross-linked by colibactins or cisplatin.\nFIG. 11 depicts the DNA cross-linking assay employing linear pUC19 DNA and synthetic colibactin fragments 23, 24, and 22. Specifically, 5% DMSO was used as vehicle (negative control), and 100 μM cisplatin was used as positive control. DNA ladder (Lane #1); 5% DMSO (Lane #2); 100 μM cisplatin (Lane #3); 500 μM 23 (Lane #4); 100 μM 23 (Lane #5); 10 μM 23 (Lane #6); 1 μM 23 (Lane #7); 100 nm 23 (Lane #8); 500 μM 24 (Lane #9); 100 μM 24 (Lane #10); 10 μM 24 (Lane #11); 1 μM 24 (Lane #12); 100 nm 24 (Lane #13); 500 μM 22 (Lane #14); 100 μM 22 (Lane #15); 10 μM 22 (Lane #16); 1 μM 22 (Lane #17); 100 nm 22 (Lane #18). Conditions (Lane #2): linearized pUC19 DNA (15.4 μM in base pairs), 5% DMSO (vehicle), 10 mM citric buffer, pH 5.0, 4 h, 37° C. Conditions (Lane #3): linearized pUC19 DNA (15.4 μM in base pairs), 5% DMSO (vehicle), 100 μM cisplatin, 10 mM citric buffer, pH 5.0, 4 h, 37° C. Conditions (Lanes #4-#8): linearized pUC19 DNA (15.4 μM in base pairs), 23 (500 μM-100 nM), 5% DMSO, 10 mM citric buffer, pH 5.0, 4 h, 37° C. Conditions (Lanes #9-#13): linearized pUC19 DNA (15.4 μM in base pairs), 24 (500 μM-1 μM), 5% DMSO, 10 mM citric buffer, pH 5.0, 4 h, 37° C. Conditions (Lanes #14-#18): linearized pUC19 DNA (15.4 μM in base pairs), 22 (500 μM-100 nM), 5% DMSO, 10 mM citric buffer, pH 5.0, 4 h, 37° C. The DNA was analyzed by native, 0.2% NaOH, 0.4% NaOH, and 1% NaOH denaturing agarose gel electrophoresis (90 V, 1.5 h). Linear=linearized DNA in native form, linear-denat.=linearized DNA in denaturing form, linear-XL=DSB/linerized DNA cross-linked by colibactins or cisplatin. […]"}, "[1]": {"experiment": "Stability of colibactin 770 in aqueous buffer (LC-MS time course)", "type": "physicochemical", "procedure": "FIG. 9 depicts the percentage of colibactin 770 (M+Na) over time at pH 7.4, 37° C. according to some embodiments. Specifically, the linear precursor to colibactin 770 (nominally 404 nmol), prepared according to Xu et al. (Science 2019, 365) was dissolved in DMSO (100 μL) and the resulting solution was diluted with PBS buffer (400 μL) at 22° C. This solution was immediately warmed to 37° C. in a preheated water bath. Aliquots (15 μL) were taken at 0 min, 5 min, 10 min, 15 min, 30 min, 60 min, 120 min, 180 min, 240 min, 300 min, and 480 min. Each aliquot was dissolved in acetonitrile (150 μL) and then immediately frozen in liquid nitrogen. The frozen aliquots were stored at −78° C. until the time course was complete. Aliquots were quickly thawed and analyzed using a Shimadzu Scientific Instruments QToF 9030 LC-MS system, equipped with a Nexera LC-40D xs UHPLC, consisting of a CBM-40 Lite system controller, a DGU-405 Degasser Unit, two LC-40D XS UHPLC pumps, a SIL-40C XS autosampler and a Column Oven CTO-40S. UV data was collected with a Shimadzu Nexera HPLC/UHPLC Photodiode Array Detector SPD M-40 in the range of 190-800 nm. Mass spectra were recorded with the quadrupole time-of-flight (QToF) 9030 mass spectrometer. The samples were held at 4° C. in the autosampler compartment. […]"}},
  "data": [
    {"compound": "C[C@H]1CCC(C2=C(CC(=O)NCC(=O)c3csc(C(=O)C(=O)c4csc(CNC(=O)CC5=C(C6=N[C@@H](C)CC6)C(=O)NC56CC6)n4)n3)C3(CC3)NC2=O)=N1", "note": "[colibactin 770 (3a)]", "values": [
      {"measurement": "genotoxicity", "setting": "eukaryotic cells", "result": "no genotoxicity was observed"},
      {"measurement": "DNA interstrand cross-link (ICL) formation", "setting": "linearized pUC19 DNA", "result": "fails to produce detectable levels of ICLs"},
      {"measurement": "stability at pH 7.0", "setting": "[1]; pH 7.0", "result": "readily decomposes"},
      {"measurement": "time to degradation in aqueous buffer", "setting": "[1]; pH 7.4, 37° C.", "result": "≤ 2", "unit": "h"}
    ]}
  ]
}
